Biological target: T1, Alpha-tocopherol transfer protein (Homo sapiens, UniProt P49638)
T1 sequence (P49638 whole entry): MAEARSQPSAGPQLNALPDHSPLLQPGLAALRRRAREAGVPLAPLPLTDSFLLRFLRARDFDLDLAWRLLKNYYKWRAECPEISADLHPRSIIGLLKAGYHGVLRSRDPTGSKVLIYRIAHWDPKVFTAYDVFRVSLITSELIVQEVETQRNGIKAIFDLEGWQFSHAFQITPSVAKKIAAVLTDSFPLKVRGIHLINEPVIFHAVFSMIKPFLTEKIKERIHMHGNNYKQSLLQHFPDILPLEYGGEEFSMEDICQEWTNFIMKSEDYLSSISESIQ
Assay: Binding affinity to human alpha-TTP assessed as dissociation constant incubated for 25 to 40 mins by fluorescence based assay

Kd: 0.094 µM
SMILES: CC1=CC(C)=[N+]2C1=Cc1ccc(CCCCCCCC[C@]3(C)CCc4c(C)c(O)c(C)c(C)c4O3)n1[B-]2(F)F
